Data set [1] relates to Wistar Hannover female rats. The experiment in a line: Toxicological study, oral, rats. In kind it is in vivo, rat. As to the method:
The compounds of Example 8 or Example 12 were orally given to 6 week-old Wistar Hannover female rats at 40 mg/kg/day.
The compound of Example 29 was orally given to 6 week-old Wistar Hannover female rats at 400 mg/Kg/day once daily for 14 days, respectively.

In data set [2] the test system is formalin-induced nociceptive response in rats. Put plainly: Inhibitory effect on the formalin-induced nociceptive response in rats. As to conditions: oral, 30 minutes before subcutaneous formalin; probit method. In kind it is in vivo, rat. As to the method: [Inhibitory Effect on the Formalin-induced Nociceptive Response in Rats]
The experiment was undertaken by the method disclosed by Doak et al., Eur. J. Pharmacol. 281:311, 1995. Specifically, 50 μL of 0.5% formalin solution was subcutaneously injected into the left foot pad of the rat, and then each behavior of the rat consisting of the licking or biting of the pad immediately following the injection was checked with a stopwatch for its duration, and its cumulative duration was recorded at five minute intervals. The nociceptive response observed in 10 minutes after the injection was termed a first-phase response while the response observed between 10 minutes and 45 minutes after the injection was termed a second-phase response. The test compound was orally applied to the rat 30 minutes before the subcutaneous injection of formalin. Then, the inhibitory effect of the test compound on the nociceptive response induced by the formalin injection was calculated according to the following formula and 30% inhibition dose (ED30 value) was determined by the probit method. To mention, for illustration, ED30 value of carbamazepine was 27 mg/kg. Percent inhibition (%)=[(PRcontrol−PRtest)/PRcontrol]×100 wherein PRtest is the response time (sec) of the test group which received formalin and the test compound, while PRcontol is the response time of the control group which. received formalin and vehicle.

Data set [3] has as its system rat model made by loosely constricting the sciatic nerve. The experiment in a line: Efficacy in the rat model made by loosely constricting the sciatic nerve (von Frey response threshold). In kind it is in vivo. As to conditions: for Mean threshold (g) Injured foot (left) / Mean threshold (g) Normal foot (right): one hour after dosing. As to the method: [Efficacy in the Rat Model Made by Loosely Constricting the Sciatic Nerve]
Preparation of the rat pain model based on the constriction of the sciatic nerve was performed by the method introduced by Bennett et al. (“Pain,” 33:87, 1988). Specifically, the rat was anesthetized with i.p. injection of pentobarbital sodium at 40 mg/kg; the overlying skin was cut open; and the left biceps femoris muscle was bluntly separated. The sciatic nerve was isolated from surrounding tissues; it was gently constricted at four sites about 1 mm apart from each other by the use of surgical gut sutures (4-0 or 3-0 chromic gut); the operated part was closed; and the rat was returned to its cage for further feeding. For the rat belonging to the sham-surgery group, the same operation was performed except that the sciatic nerve was left untouched. Two weeks after the surgery, the response threshold to a mechanical stimulus consisting of touch with von Frey filaments was determined. The test proceeded as follows: the test compound was orally applied to the rat having the sciatic nerve constricted; one hour later, von Frey hairs were applied against the foot pad (spots ranging from heel to the mid-point of foot) one after another in an ascending order of their stiffness; if the rat raises its foot when a certain von Frey hair was applied, the stimulus intensity of that hair was taken as the response threshold (maximum stimulus intensity being 28.84 g).

The next data set deals with rhesus male monkeys. The experiment in a line: Toxicological study, oral, 14 days, monkeys. Format: in vivo, rhesus monkey. As to conditions: oral 40 mg/Kg/day once daily for 14 days. Here is the method:
The compound Example 12 or Example 29 were orally given to 3 year-old rhesus male monkeys at 20 mg/Kg/day and 40 mg/Kg/day, respectively, once daily for 14 days.

The test system of a further data set is rhesus male monkey. Put plainly: Holter ECG test. Format: in vivo. The settings on record: oral 80 mg/Kg, 4 year-old rhesus male monkey. As to the method:
In Holter ECG test, the compound of Example 12 or Example 29 were orally given to 4 year-old rhesus male monkey at 80 mg/Kg. There was no effect in electrocardiogram.

A short description of data set [4]: Pharmacokinetics: plasma concentration after a single oral administration. Format: in vivo. As to conditions: male rhesus monkey. An excerpt:
The compound of Example 12 or Example 29 were studied about time-course profile of plasma concentration after a single oral administration to 3 or 4 year-old male rhesus monkey. […] Therefore, it can be considered to cause unlikely the drug-drug interaction by the compounds. […] Therefore, it can be considered that the compounds are unlikely metabolized by first pass effect.

Data set [5] relates to human-drug metabolizing enzymes. Put plainly: Inhibitory effect on human-drug metabolizing enzymes. In kind it is in vitro ADME.
A short description of data set [6]: Metabolic stability in human liver microsomes and hepatocytes. Format: in vitro ADME.
A short description of data set [7]: Metabolic stability in monkey liver microsomes and hepatocytes. Format: in vitro ADME.
Data set [8] can be described thus: Metabolic stability in dog liver microsomes and hepatocytes. Format: in vitro ADME. On the technique in general: Liver microsomes are vesicles of endoplasmic reticulum, rich in cytochrome P450 enzymes.
A short description of data set [9]: Metabolic stability in rat liver microsomes and hepatocytes. In kind it is in vitro ADME.
Where [10] appears, read: oral 400 mg/Kg/day once daily for 14 days.

The values that follow come from patent US6956046B2, “4-hydroxypiperidine derivatives having analgesic activity” (priority 2001, dated 2005).

What is called melting point is the temperature, or range, at which the solid turns liquid. Compound `CN(CC1(O)CCN(CCc2ccc(C#N)cc2)CC1)c1ccccc1C(=O)O.Cl` returned a melting point of 195.3 to 200.6 °C.
On the same count and under the same terms, as for `CN(CC1(O)CCN(CCc2ccccc2C#N)CC1)c1ccc(C(=O)O)cc1.Cl`, the figure is 197.2 to 222.4 °C; as for `Cl.N#Cc1ccc(CCN2CCC(O)(CNc3ccc(C(=O)O)cc3)CC2)cc1`, 247.7 to 253.2 °C.
Turning to `Cl.N#Cc1ccc(CCN2CCC(O)(COc3ccc(CO)cc3)CC2)cc1` [Example 8, 1-[2-(4-cyanophenyl)ethyl]-4-(4-hydroxymethylphenoxymethyl)piperidin-4-ol hydrochloride], in [1] (oral 40 mg/kg/day, 6 week-old female rats), the general appearance entry was “no abnormalities”. Also, in [1] (oral 40 mg/kg/day, 6 week-old female rats, examination period), the survival entry is “all the rats survived”.
As for `CN(CC1(O)CCN(CCc2ccc(C#N)cc2)CC1)c1ccc([N+](=O)[O-])cc1.Cl`, the melting point lay within 169.8 to 173.6 °C.
On the same count and under the same terms, under `Cl.N#Cc1ccc(CCN2CCC(O)(COc3ccc(O)cc3)CC2)cc1` stands 253 to 255.6 °C; under `CN(CC1(O)CCN(CCc2ccc(C#N)cc2)CC1)c1ccc(-c2nnn[nH]2)cc1` [Example 17, 4-{2-[4-hydroxy-4-({methyl[4-(1H-tetrazol-5-yl)phenyl]-amino}methyl)piperidin-1-yl]ethyl}benzonitrile], 159.7 to 171.8 °C.
Turning to `CN(CC1(O)CCN(CCc2ccc(C#N)cc2)CC1)c1ccc(C(=O)O)cc1.Cl` [Example 29, 4-({1-[2-(4-cyanophenyl)ethyl]-4-hydroxypiperidin-4-ylmethyl}methylamino)benzoic acid monohydrochloride], the “ED30 value (30% inhibition dose)” value in [2] came to 1.2 mg/kg. Moreover, the “Mean threshold (g) Injured foot (left)” value in data set [3] (dose 1 mg/kg oral) came to 5.22 g; in data set [3] (dose 3 mg/kg oral), 7.09 g; in data set [3] (dose 10 mg/kg oral), 8.61 g. For the same compound, the entries for the “Mean threshold (g) Normal foot (right)” value in data set [3] (dose 1 mg/kg oral), in data set [3] (dose 3 mg/kg oral) and in [3] (dose 10 mg/kg oral) were 14.12 g, 14.49 g and 15.49 g, respectively. Also, the “general appearances, body weight gains and food consumptions” value (in data set [1] (setting [10]); in the data set with rhesus male monkeys) was “no abnormalities” throughout. For the same compound, the “hematology, biochemistry, organ weight, and histopathology” value (in data set [1] (setting [10]); in the data set with rhesus male monkeys) was “No abnormal findings” each time. Besides, the survival result in data set [1] (oral 400 mg/Kg/day once daily for 14 days, until 24 hours after final administration) is “All the rats survived”; in the data set with rhesus male monkeys (until 24 hours after final administration) it was “All the monkeys survived”. In addition, in the data set on rhesus male monkey, the effect in electrocardiogram result was “no effect”. The bioavailability result in data set [4] is “very good bioavailability”. Moreover, the “maximum plasma concentration (Cmax) and area under the plasma concentration-time curve (AUC) versus dose” value in [4] is given as “increased almostly in proportion to the doses”. The “inhibitory effect on human-drug metabolizing enzymes” value in data set [5] is listed as “no serious inhibitory effect”. The metabolic stability result in [6], in data set [7], in [8] and in [9] was “metabolically stable” throughout.
With `CN(CC1(O)CCN(CCc2ccc(C#N)cc2)CC1)c1ccccc1C(=O)O` [Example 19, 2-({1-[2-(4-cyanophenyl)ethyl]-4-hydroxypiperidin-4-ylmethyl}methylamino)benzoic acid], the melting point fell in the range of 106.5 to 116.2 °C.
With `NC(=O)N1c2ccccc2C=Cc2ccccc21` [Carbamazepine, carbamazepine, reference compound], in data set [2], the “ED30 value (30% inhibition dose)” value turned out to be 27 mg/kg. Further, in data set [3] (dose 30 mg/kg oral), the “Mean threshold (g) Injured foot (left)” value was determined as 9.01 g and the “Mean threshold (g) Normal foot (right)” value is 20.53 g. The “threshold of the injured paw to a mechanical stimulus (in words)” value in data set [3] (injured side) is “significantly raised”. Moreover, in [3] (normal side), the “response threshold of the normal paw (in words)” value is given as “significantly raised”.
`COC(=O)c1ccc(OCC2(O)CCN(CCc3ccc(C#N)cc3)CC2)cc1.Cl`: the melting point fell in the range of 183.7 to 189.7 °C.
On the same count and under the same terms, under `CN(CC1(O)CCN(CCc2ccccc2)CC1)c1ccc(C(=O)O)cc1.Cl` stands 242.5 to 245 °C; under `CN(CC1(O)CCN(CCc2ccc(C#N)cc2)CC1)c1cccc(C(=O)O)c1.Cl`, 125.5 to 129.7 °C.
`CN(CC1(O)CCN(CCc2ccc(C#N)cc2)CC1)c1ccc([N+](=O)[O-])cc1` [Example 16, 4-[2-(4-hydroxy-4-{[methyl(4-nitrophenyl)amino]methyl}piperidin-1-yl)ethyl]benzonitrile] came in with a melting point of 98.3 to 108.1 °C.
Regarding `N#Cc1ccc(CCN2CCC(O)(COc3ccc(C(N)=O)cc3)CC2)cc1` [Example 5, 4-(4-carbamoylphenoxymethyl)-1-[2-(4-cyanophenyl)ethyl]-piperidin-4-ol], the melting point was in the range of 192.1 to 193.2 °C.
Same read-out and setting: under `N#Cc1ccc(CCN2CCC(O)(COc3ccc([N+](=O)[O-])cc3)CC2)cc1` [Example 6, 1-[2-(4-cyanophenyl)ethyl)-4-(4-nitrophenoxymethyl)piperidin-4-ol] stands 134.7 to 156.7 °C; under `Cl.N#Cc1ccc(CCN2CCC(O)(COc3ccc(C(N)=O)cc3)CC2)cc1`, 251 to 254.9 °C; under `CN(CC1(O)CCN(CCc2ccc(C#N)cc2)CC1)c1cccc(C(=O)O)c1` [Example 15, 3-({1-[2-(4-cyanophenyl)ethyl]-4-hydroxypiperidin-4-ylmethyl}methylamino)benzoic acid], 181.9 to 189.1 °C.
Compound `CN(CC1(O)CCN(CCc2cccc(C#N)c2)CC1)c1ccc(C(=O)O)cc1.Cl` came in with a melting point of 166.8 to 176.4 °C.
Still for that read-out and setting: as for `CN(CC1(O)CCN(CCc2ccc(S(C)(=O)=O)cc2)CC1)c1ccc(C(=O)O)cc1.Cl`, the figure is 246.5 to 249.6 °C.
`Cl.N#Cc1ccc(CCN2CCC(O)(COc3ccc([N+](=O)[O-])cc3)CC2)cc1` [Example 11, 1-[2-(4-cyanophenyl)ethyl]-4-(4-nitrophenoxymethyl)piperidin-4-ol hydrochloride] returned a melting point of 219.6 to 221.3 °C. Also, the “ED30 value (30% inhibition dose)” value in data set [2] was determined as 0.047 mg/kg.
